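The compound was tested at five concentrations on cells cultured in 96-well plates, with a 48-hour exposure period. TGI: total growth inhibition.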

Among the test systems are MDA-MB-435; NCI-H23 lung; OVCAR-4 ovarian; 786-0 renal; NCI-H460 lung; SF-539 CNS; MDA-MB-231 breast; SR leukemia; OVCAR-5 ovarian; DU-145 prostate; NCI-H522 lung; NCI/ADR-RES ovarian; IGROV1 ovarian; SW-620 colon; TK-10 renal; OVCAR-3 ovarian; T-47D breast; CAKI-1 renal; CCRF-CEM leukemia.
Common to all, as to assay: inhibition of tumour cell growth, NCI panel, 48 h

For the compound `O=C1NC2O[C@H](CNC(=O)c3cc(Br)c[nH]3)CC2(O)N1` (mixture of isomers), the TGI in the experiment on MDA-MB-435, with NCI-H23 lung, in the experiment on OVCAR-4 ovarian, with 786-0 renal, in the experiment with NCI-H460 lung and with SF-539 CNS was above 100 µM in each case. In addition, the TGI with MDA-MB-231 breast, with SR leukemia, with OVCAR-5 ovarian, in the experiment on DU-145 prostate, in the experiment with NCI-H522 lung and with NCI/ADR-RES ovarian was above 100 µM each time. Moreover, the TGI with IGROV1 ovarian, with SW-620 colon, in the experiment with TK-10 renal, in the experiment on OVCAR-3 ovarian, in the experiment with T-47D breast and in the experiment on CAKI-1 renal was above 100 µM in each case.
Turning to `CCOC(=O)c1cc2c3ccn(Cc4ccccc4)c3c3c(C)[nH]oc3c2n1`, the TGI with MDA-MB-435, with NCI-H23 lung, in the experiment with OVCAR-4 ovarian, in the experiment on 786-0 renal, with NCI-H460 lung and in the experiment on MDA-MB-231 breast was above 100 µM throughout. Besides, the TGI with SR leukemia, in the experiment with OVCAR-5 ovarian, with DU-145 prostate, in the experiment on CCRF-CEM leukemia, in the experiment on NCI-H522 lung and in the experiment with NCI/ADR-RES ovarian was above 100 µM in each case. In addition, the TGI in the experiment with IGROV1 ovarian, in the experiment on SW-620 colon, with TK-10 renal, with OVCAR-3 ovarian, with T-47D breast and with CAKI-1 renal was above 100 µM each time.
In the case of `CC(=O)[C@@H](C)C(=O)N1C(=O)OC[C@@]12[C@@H]1CC[C@@H](C1)C2(C)C`, the TGI with MDA-MB-435, in the experiment with NCI-H23 lung, in the experiment on OVCAR-4 ovarian, in the experiment with 786-0 renal, in the experiment on NCI-H460 lung and in the experiment with SF-539 CNS was above 100 µM each time. Besides, the TGI in the experiment on MDA-MB-231 breast, in the experiment on SR leukemia, with OVCAR-5 ovarian, in the experiment on DU-145 prostate, with CCRF-CEM leukemia and with NCI-H522 lung was above 100 µM each time. The TGI in the experiment with NCI/ADR-RES ovarian, in the experiment on IGROV1 ovarian, in the experiment on SW-620 colon, with TK-10 renal, with T-47D breast and with CAKI-1 renal was above 100 µM in each case.
For `O=C(c1cccs1)N1CCc2ccccc2C1`, the TGI in the experiment with MDA-MB-435, in the experiment on NCI-H23 lung, with 786-0 renal, in the experiment with NCI-H460 lung, in the experiment with SF-539 CNS and with MDA-MB-231 breast was above 100 µM throughout. Besides, the TGI in the experiment with SR leukemia, in the experiment on OVCAR-5 ovarian, with DU-145 prostate, in the experiment with CCRF-CEM leukemia, in the experiment with NCI-H522 lung and with NCI/ADR-RES ovarian was above 100 µM each time. Moreover, the TGI in the experiment with IGROV1 ovarian, in the experiment with SW-620 colon, in the experiment on TK-10 renal, in the experiment on OVCAR-3 ovarian, in the experiment with T-47D breast and in the experiment with CAKI-1 renal was above 100 µM throughout.
`CCOC(=O)c1ccc(NCc2ccc3oc(=O)c(-c4ccccc4)nc3c2)cc1`: the TGI is 32.7 µM in the experiment with MDA-MB-435; 44.5 µM in the experiment on NCI-H23 lung; 54.1 µM in the experiment on OVCAR-4 ovarian; above 100 µM in the experiment with 786-0 renal; above 100 µM with NCI-H460 lung; above 100 µM in the experiment with SF-539 CNS. Also, the TGI is above 100 µM in the experiment on MDA-MB-231 breast; above 100 µM with SR leukemia; above 100 µM in the experiment on OVCAR-5 ovarian; above 100 µM with DU-145 prostate; 22.6 µM in the experiment on CCRF-CEM leukemia; 32.1 µM in the experiment with NCI-H522 lung. For the same compound, the TGI is above 100 µM in the experiment with NCI/ADR-RES ovarian; above 100 µM with IGROV1 ovarian; 50.4 µM with SW-620 colon; 90.5 µM in the experiment on OVCAR-3 ovarian; 34.1 µM with T-47D breast; 52.5 µM in the experiment on CAKI-1 renal.
For the compound `CCCCC1Cc2ccccc2-c2nc3ccccc3n21` (stereo not drawn), the TGI in the experiment on MDA-MB-435 is 37.1 µM; in the experiment with NCI-H23 lung it was 32 µM; in the experiment with OVCAR-4 ovarian it was 29.8 µM; with 786-0 renal, 61.9 µM; with NCI-H460 lung, 28.8 µM; in the experiment on SF-539 CNS it was 41.4 µM. The TGI in the experiment on MDA-MB-231 breast stood at 31.7 µM; in the experiment with SR leukemia, 24.3 µM; with OVCAR-5 ovarian, 31.4 µM; in the experiment on DU-145 prostate, 38.1 µM; in the experiment on NCI-H522 lung it was 26.5 µM; with NCI/ADR-RES ovarian, 33.5 µM. Moreover, the TGI in the experiment with IGROV1 ovarian is 32.9 µM; with SW-620 colon, 33.9 µM; in the experiment with TK-10 renal, 31.5 µM; in the experiment on OVCAR-3 ovarian, 30.3 µM; with T-47D breast, 29.4 µM; in the experiment on CAKI-1 renal, 31.9 µM.
Turning to `CCOC1=NC(O)c2cccn2-c2sccc21` (stereo not drawn), the TGI in the experiment on MDA-MB-435, in the experiment with NCI-H23 lung, with OVCAR-4 ovarian, in the experiment with 786-0 renal, in the experiment with NCI-H460 lung and with SF-539 CNS was above 100 µM each time. The TGI in the experiment with MDA-MB-231 breast, in the experiment on SR leukemia, in the experiment on OVCAR-5 ovarian, in the experiment with DU-145 prostate, in the experiment with NCI-H522 lung and with NCI/ADR-RES ovarian was above 100 µM throughout. For the same compound, the TGI with SW-620 colon, in the experiment on TK-10 renal, in the experiment on OVCAR-3 ovarian, in the experiment on T-47D breast and in the experiment on CAKI-1 renal was above 100 µM in each case.
With `O=[N+]([O-])c1ccc(S(=O)(=O)n2c3ccc(Br)cc3c3nc4ccccc4nc32)cc1`, the TGI with MDA-MB-435, with NCI-H23 lung, in the experiment with OVCAR-4 ovarian, in the experiment on 786-0 renal, in the experiment with NCI-H460 lung and in the experiment with MDA-MB-231 breast was above 100 µM in each case. The TGI in the experiment on SR leukemia, in the experiment on OVCAR-5 ovarian, with DU-145 prostate, with CCRF-CEM leukemia, in the experiment on NCI-H522 lung and with NCI/ADR-RES ovarian was above 100 µM each time. Also, the TGI in the experiment on IGROV1 ovarian, in the experiment on SW-620 colon, with TK-10 renal, with OVCAR-3 ovarian, in the experiment with T-47D breast and with CAKI-1 renal was above 100 µM each time.

The values are drawn from PubChem BioAssay (NCI).
